Test results taken from ChEMBL document CHEMBL5241090, “A comprehensive overview of β-carbolines and its derivatives as anticancer agents” (Eur J Med Chem, 2021).
pIC50: −log10 of the molar value. In brackets after ≈: the same amount, converted by molar mass.

Assays:
NCI-H187 = assay: Cytotoxicity against human NCI-H187 cells; type: functional, cell-based
[1] = molecular target: T1, Kinesin-like protein KIF11 (Homo sapiens, UniProt P52732); assay: Inhibition of KSP (unknown origin)
T1 sequence (P52732 whole entry): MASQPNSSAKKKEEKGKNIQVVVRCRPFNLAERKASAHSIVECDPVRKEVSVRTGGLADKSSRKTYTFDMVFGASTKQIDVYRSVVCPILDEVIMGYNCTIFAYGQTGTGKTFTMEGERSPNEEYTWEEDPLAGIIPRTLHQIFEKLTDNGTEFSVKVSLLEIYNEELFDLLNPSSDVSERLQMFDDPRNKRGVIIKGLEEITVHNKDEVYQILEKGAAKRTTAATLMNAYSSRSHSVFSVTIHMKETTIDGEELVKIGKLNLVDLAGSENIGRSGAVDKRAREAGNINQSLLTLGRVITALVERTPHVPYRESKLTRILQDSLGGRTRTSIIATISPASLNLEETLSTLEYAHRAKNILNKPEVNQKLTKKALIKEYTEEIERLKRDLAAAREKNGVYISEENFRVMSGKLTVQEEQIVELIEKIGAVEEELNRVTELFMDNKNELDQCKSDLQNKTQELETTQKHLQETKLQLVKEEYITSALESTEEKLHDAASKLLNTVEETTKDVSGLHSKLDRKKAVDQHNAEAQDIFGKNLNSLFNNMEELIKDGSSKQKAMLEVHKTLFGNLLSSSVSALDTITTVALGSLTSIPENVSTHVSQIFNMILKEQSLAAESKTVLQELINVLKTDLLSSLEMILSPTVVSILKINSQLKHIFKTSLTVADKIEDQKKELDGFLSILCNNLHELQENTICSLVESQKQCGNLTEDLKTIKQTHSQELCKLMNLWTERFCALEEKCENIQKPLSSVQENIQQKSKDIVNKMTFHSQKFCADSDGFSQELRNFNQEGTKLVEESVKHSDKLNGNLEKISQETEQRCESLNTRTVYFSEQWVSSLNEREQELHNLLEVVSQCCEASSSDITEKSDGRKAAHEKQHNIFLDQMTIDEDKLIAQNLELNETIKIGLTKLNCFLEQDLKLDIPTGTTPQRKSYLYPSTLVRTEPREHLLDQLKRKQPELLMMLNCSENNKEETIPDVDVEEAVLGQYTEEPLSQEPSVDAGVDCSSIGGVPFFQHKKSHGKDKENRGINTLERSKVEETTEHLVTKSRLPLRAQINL

DNA topoisomerase 1 = molecular target: T2, DNA topoisomerase 1 (Homo sapiens, UniProt P11387); assay: Inhibition of Topoisomerase 1 (unknown origin)
T2 sequence (P11387 whole entry): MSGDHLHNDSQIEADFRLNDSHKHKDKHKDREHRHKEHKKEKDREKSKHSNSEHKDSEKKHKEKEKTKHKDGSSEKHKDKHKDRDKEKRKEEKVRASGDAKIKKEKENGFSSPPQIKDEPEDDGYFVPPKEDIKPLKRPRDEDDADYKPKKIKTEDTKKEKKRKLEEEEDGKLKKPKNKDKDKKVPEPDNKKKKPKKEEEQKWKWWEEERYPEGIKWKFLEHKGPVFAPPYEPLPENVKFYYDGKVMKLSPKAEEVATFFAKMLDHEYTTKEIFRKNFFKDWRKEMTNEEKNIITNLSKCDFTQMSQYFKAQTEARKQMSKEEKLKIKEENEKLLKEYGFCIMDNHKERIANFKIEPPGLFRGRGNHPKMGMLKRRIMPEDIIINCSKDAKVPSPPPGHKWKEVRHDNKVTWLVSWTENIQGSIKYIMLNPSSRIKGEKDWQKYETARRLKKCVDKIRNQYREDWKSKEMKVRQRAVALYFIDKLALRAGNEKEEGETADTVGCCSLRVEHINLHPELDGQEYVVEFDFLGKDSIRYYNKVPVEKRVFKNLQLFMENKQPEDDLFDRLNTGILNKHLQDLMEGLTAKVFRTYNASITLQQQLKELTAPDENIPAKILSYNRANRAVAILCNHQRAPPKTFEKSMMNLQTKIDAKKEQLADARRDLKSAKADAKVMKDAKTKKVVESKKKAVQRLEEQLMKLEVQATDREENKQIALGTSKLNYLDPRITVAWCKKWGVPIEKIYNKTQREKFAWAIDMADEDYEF

HepG2 [2] = assay: Cytotoxicity against human HepG2 cells assessed as reduction in optical density by MTT assay; type: functional, cell-based
SGC-7901 [3] = assay: Cytotoxicity against human SGC-7901 cells assessed as reduction in optical density by MTT assay; type: functional, cell-based
[4] = Cytotoxicity against human 95-D cells assessed as reduction in optical density by MTT assay; type: functional, cell-based
HepG2 [5] = assay: Cytotoxicity against human HepG2 cells; type: functional, cell-based; settings: read-out: TC50 (the source's name)
COLO 205 = assay: Cytotoxicity against human COLO 205 cells measured after 24 hrs by MTT assay; type: functional, cell-based; settings: COLO 205, 24 h
A2780 = assay: Cytotoxicity against human A2780 cells measured after 24 hrs by MTT assay; type: functional, cell-based; settings: A2780, 24 h
MCF7 [6] = assay: Cytotoxicity against human MCF7 cells measured after 24 hrs by MTT assay; type: functional, cell-based; settings: MCF7, 24 h
A549 [7] = assay: Cytotoxicity against human A549 cells measured after 24 hrs by MTT assay; type: functional, cell-based; settings: A549, 24 h
DU-145 [8] = assay: Cytotoxicity against human DU-145 cells; type: functional, cell-based
ACHN = assay: Cytotoxicity against human ACHN cells; type: functional, cell-based
A549 [9] = assay: Cytotoxicity against human A549 cells; type: functional, cell-based
HeLa [10] = assay: Cytotoxicity against human HeLa cells; type: functional, cell-based
MCF7 [11] = assay: Cytotoxicity against human MCF7 cells; type: functional, cell-based
HCT-116 [12] = assay: Cytotoxicity against human HCT-116 cells by MTT assay; type: functional, cell-based
SGC-7901 [13] = assay: Cytotoxicity against human SGC-7901 cells measured after 48 hrs by MTT assay; type: functional, cell-based; settings: SGC-7901, 48 h
A549 [14] = assay: Cytotoxicity against human A549 cells measured after 48 hrs by MTT assay; type: functional, cell-based; settings: A549, 48 h
HeLa [15] = assay: Cytotoxicity against human HeLa cells measured after 48 hrs by MTT assay; type: functional, cell-based
SMMC-7721 [16] = assay: Cytotoxicity against human SMMC-7721 cells measured after 48 hrs by MTT assay; type: functional, cell-based; settings: SMMC-7721, 48 h
HUVEC = assay: Cytotoxicity against human HUVEC cells; type: functional, cell-based
TERT-RPE1 = assay: Cytotoxicity against human TERT-RPE1 cells; type: functional, cell-based; settings: RPE-1
Col2 = assay: Cytotoxicity against human Col2 cells; type: functional, cell-based
[17] = Cytotoxicity against human Lu1 cells; type: functional, cell-based
LNCaP = assay: Cytotoxicity against human LNCaP cells; type: functional, cell-based
MG-63 = assay: Cytotoxicity against human MG-63 cells; type: functional, cell-based
Keratinocyte = assay: Cytotoxicity against guinea pig ear keratinocytes using [3H]thymidine by liquid scintillation counting analysis; type: functional, cell-based; settings: Cavia porcellus
Bel7402/5-FU = assay: Cytotoxicity against human BEL-7402/5-FU cells measured after 72 hrs by MTT assay; type: functional, cell-based
Bel-7402 = assay: Cytotoxicity against human Bel-7402 cells measured after 72 hrs by MTT assay; type: functional, cell-based; settings: Bel-7402, 72 h
Huh-7 = assay: Cytotoxicity against human Huh-7 cells measured after 72 hrs by MTT assay; type: functional, cell-based; settings: Huh-7, 72 h
HCT-116 [18] = assay: Cytotoxicity against human HCT-116 cells measured after 72 hrs by MTT assay; type: functional, cell-based; settings: HCT-116, 72 h
SMMC-7721 [19] = assay: Cytotoxicity against human SMMC-7721 cells measured after 72 hrs by MTT assay; type: functional, cell-based; settings: SMMC-7721, 72 h
DU-145 [20] = assay: Antiproliferative activity against human DU-145 cells incubated for 48 hrs by MTT assay; type: functional, cell-based; settings: DU-145, 48 h
HCC1395 = assay: Antiproliferative activity against human HCC1395 cells incubated for 48 hrs by MTT assay; type: functional, cell-based; settings: HCC1395, 48 h
HT-1080 = assay: Cytotoxicity against human HT-1080 cells; type: functional, cell-based

COC(=O)c1cc2c([nH]c3ccccc32)c([C@H](C)O)n1
pIC50 (NCI-H187): 4.12

O=C(NNC(=S)Nc1ccc(Br)cc1)c1cc2c([nH]c3ccccc32)c(-c2cccc(O)c2)n1
pIC50 [1]: 4.87 | pIC50 (DNA topoisomerase 1): 5.24

COc1ccc2c3ccnc(C)c3n(C)c2c1
pIC50 (HepG2 [2]): > 4.44 | pIC50 (SGC-7901 [3]): > 4.44 | pIC50 [4]: > 4.44

O=C(O)[C@@H](O)Cc1nccc2c1[nH]c1ccccc12
CC50 (HepG2 [5]): > 50 µM

COc1cc2nc(-c3nc(-c4nccc5c4[nH]c4ccccc45)cs3)[nH]c2cc1OC
pIC50 (COLO 205): 6.47 | pIC50 (A2780): 5.91 | pIC50 (MCF7 [6]): 7.04 | pIC50 (A549 [7]): 6.14

CC(=O)N1N=C(c2ccco2)CC1c1cc2c([nH]c3ccccc32)c(-c2ccc(C(F)(F)F)cc2)n1 (stereo not drawn)
pIC50 (DU-145 [8]): 5.71 | pIC50 (ACHN): 5.71 | pIC50 (A549 [9]): 5.71 | pIC50 (HeLa [10]): 5.71 | pIC50 (MCF7 [11]): 5.71

COC(=O)c1cc2c([nH]c3ccccc32)c(C(C)=O)n1
IC50 (HCT-116 [12]): 9.67 µg/mL (≈ 36 µM)

Cc1ccccc1Cn1c2ccccc2c2cc(C(=O)OCCCCCOC(=O)c3cc4c5ccccc5n(Cc5ccccc5C)c4cn3)ncc21
pIC50 (SGC-7901 [13]): 5.16 | pIC50 (A549 [14]): 5.16 | pIC50 (HeLa [15]): 5.16 | pIC50 (SMMC-7721 [16]): 5.16

COc1cc2c3ccccc3n3c(=O)ccc(n1)c23
pIC50 (HUVEC): 6.30 | pIC50 (TERT-RPE1): 6.30 | pIC50 (Col2): 6.30 | pIC50 [17]: 6.30 | pIC50 (LNCaP): 6.30

O=C(/C=C/c1cc2c([nH]c3ccccc32)c(-c2ccc(C(F)(F)F)cc2)n1)c1ccco1
pIC50 (DU-145 [8]): 5.72 | pIC50 (ACHN): 5.72 | pIC50 (A549 [9]): 5.72 | pIC50 (HeLa [10]): 5.72 | pIC50 (MCF7 [11]): 5.72

O=C(c1cc2c([nH]c3ccccc32)c(-c2ccccc2)n1)N1CCN(S(=O)(=O)c2ccc(Cl)cc2)CC1
pIC50 (MG-63): 5.55

COc1cnc2ccc(=O)n3c4ccccc4c1c23
IC50 (Keratinocyte): 5.76 µg/mL (≈ 23 µM)

COc1ccc(C(=O)n2c3ccccc3c3ccnc(-c4cc(-c5ccc(-c6nc7ccccc7s6)cc5)no4)c32)c(OC)c1OC
pIC50 (COLO 205): 6.19 | pIC50 (A2780): 6.72 | pIC50 (MCF7 [6]): 7.00 | pIC50 (A549 [7]): 6.85

CN(C)c1ccc(-c2nc(C(=O)NCc3ccc(/C=C/C(=O)NO)cc3)cc3c2[nH]c2ccccc23)cc1
pIC50 (Bel7402/5-FU): 5.74 | pIC50 (Bel-7402): 5.74 | pIC50 (Huh-7): 5.74 | pIC50 (HCT-116 [18]): 5.74 | pIC50 (SMMC-7721 [19]): 5.74

COc1ccc2c(c1)c1ccnc3ccc(=O)n2c31
IC50 (DU-145 [20]): 1.58 µg/mL (≈ 6.31 µM) | IC50 (HCC1395): 14.7 µg/mL (≈ 58.7 µM)

COc1c(O)ccc2c1c1ccnc3ccc(=O)n2c31
pIC50 (HT-1080): 5.14

COc1ccc2c3ccnc(C)c3n(CCCc3ccccc3)c2c1
pIC50 (HepG2 [2]): > 4.44 | pIC50 (SGC-7901 [3]): > 4.44 | pIC50 [4]: 4.44
